This is an account of results in ChEMBL document CHEMBL1155630, “New metabolites from the West Indian sea feather Pseudopterogorgia bipinnata” (J Nat Prod, 2000).

For the test, the system named is Mycobacterium tuberculosis. Description: Antitubercular activity against Mycobacterium tuberculosis H37Rv at 6.25 ug/mL. It is filed as functional, organism-based.

The structures appear in SMILES notation. Calls of active or inactive are those of the source. The calls are words filed in the database; no cut-off is given here.

`C=C(C)[C@H](CCC1=C[C@H](CC(C)=O)OC1=O)[C@H](O)c1oc(C(C)=O)cc1C`: the result was inactive. In the case of `C=C1CC(=O)/C=C(/C)C[C@@H]2OC(=O)[C@]3(O[C@@H]23)[C@H]2C[C@@H]([C@@]3(C)CO3)[C@H](O)[C@]1(O)O2` it was “inactive”.
